Legend:
[1] = target: T1, recombinant human secretory phospholipase A2 (Homo sapiens, UniProt P14555); assay: Inhibition test of human secretory phospholipase A2 (chromogenic assay, 96 well microtiterplate); format: biochemical; conditions: sPLA2 50 ng/well, 40° C., 30 minutes, OD 405 nm, substrate 1,2-bis(heptanoylthio)-1,2-dideoxy-sn-glycero-3-phospholylcholine
T1 sequence (P14555 21-144): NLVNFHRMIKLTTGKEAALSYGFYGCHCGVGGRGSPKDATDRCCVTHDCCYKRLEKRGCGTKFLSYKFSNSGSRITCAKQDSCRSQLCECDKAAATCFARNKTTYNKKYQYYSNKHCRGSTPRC
From the text: Inhibition Test of Human Secretory Phospholipase A2
In order to identify and evaluate an inhibitor of recombinant human secretory phospholipase A2, the following chromogenic assay is utilized. The assay herein has been applied for high volume screening wherein 96 well microtiterplate is used. A general explanation for such assay is described in “Analysis of Human Synovial Fluid Phospholipase A2 on Short Chain Phosphatidylcholine-Mixed Micelles: Development of a Spectrophotometric Assay Suitable for a Micortiterplate Reader” (Analytical Biochemistry, 204, pp 190-197, 1992 by Laure. J. Reynolds. Lori L. Hughes and Edward A. Dennis: the disclosure of which is incorporated herein for reference.
Bovine Serum Albumin (fatty acid free) (1 g/L) (Sigma A-7030)
pH 7.5 (adjusted with NaOH)
pH 4.5 (adjusted with acetic acid)
1 mg of sPLA2 is dissolved in 1 ml of an enzyme buffer. Thereafter, the solution is maintained at 4° C.
In the assay, 5 μl of the solution is diluted with 1995 μl of the reaction buffer to be used.
198 mg of 5,5′-dithiobis-2-[…] (manufactured by Wako Pure Chemicals) is dissolved in 100 ml of H2O
100 mg of racemic 1,2-bis(heptanoylthio)-1,2-dideoxy-sn-glycero-3-phospholylcholine is dissolved in 1 ml of chloroform.
624.9 mg of Triton-X 100 is dissolved in the reaction buffer.
Enzyme Reaction: for 1 plate of Microtiterplate
1) 0.106 ml of the substrate solution is put in a centrifugal tube, and nitrogen gas is jetted to remove the solvent. 0.54 ml of Triton-X 100 is added thereto, the mixture is stirred, thereafter it is sonified in a bath type sonification to dissolve. To the resulting product are added 17.8 m1l of the reaction buffer and 0.46 ml of DTNB, and 0.18 ml each of the admixture is poured to wells of the 96 well microtiterplate.
2) 10 μl of a test compound (or solvent blank) are added in accordance with alignment of plates which has been previously set.
3) Incubation is effected at 40° C. for 15 minutes.
4) 20 μl of an enzyme solution (sPLA2) which has been previously diluted (50 ng/well) are added to start reaction (40° C., 30 minutes).
5) Changes in absorbancy for 30 minutes are measured by a plate reader, and inhibition activity was calculated (OD: 405 nm).
6) IC50 was determined by plotting log concentration with respect to inhibition values within 10% to 90% inhibiting range.

| Structure (SMILES) | IC50 [1] | melting point |
| --- | --- | --- |
| COC(=O)COc1cc(-c2ccccc2)nn2c(Cc3ccccc3)c(C)c(C(=O)C(N)=O)c12 [Compound I-45] | 0.03 µM | 251 to 252 °C |
| CCc1c(C(=O)C(N)=O)c2c(OCC(=O)OC)cc(COc3ccc(OC)cc3)nn2c1Cc1ccccc1 [Compound I-46] | 0.268 µM | 167 to 168 °C |
| CCc1c(C(=O)C(N)=O)c2c(OCC(=O)OC)cc(COc3ccc(OC)c(OC)c3)nn2c1Cc1ccccc1 [Compound I-47] | 0.618 µM | 176 to 179 °C |
| CCc1c(C(=O)C(N)=O)c2c(OCC(=O)OC)cc(COc3ccc(C)cc3)nn2c1Cc1ccccc1 [Compound I-48] | 0.211 µM | 191 to 192 °C |
| CCc1c(C(=O)C(N)=O)c2c(OCC(=O)OC)cc(CN3C(=O)CCC3=O)nn2c1Cc1ccccc1 [Compound I-49] | 7.81 µM | 188 to 189 °C |
| CCc1c(C(=O)C(N)=O)c2c(OCC(=O)OCc3ccccc3)cc(CN=[N+]=[N-])nn2c1Cc1ccccc1 [Compound I-50] | 0.526 µM | 178 to 179 °C |
| COC(=O)COc1cc(Cc2ccccc2)nn2c(C)c(C)c(C(=O)C(N)=O)c12 [Compound I-51] | 25.6 µM | 199 to 201 °C |
| COC(=O)COc1cc(C)nn2c(Cc3ccccc3-c3ccc(F)cc3)c(C)c(C(=O)C(N)=O)c12 [Compound I-52] | 0.093 µM | 194 to 196 °C |
| COC(=O)COc1cc(C)nn2c(Cc3ccc(-c4ccccc4)cc3)c(C)c(C(=O)C(N)=O)c12 [Compound I-53] | 3.74 µM | 234 to 236 °C |
| CCc1c(C(=O)C(N)=O)c2c(OCC(=O)OC)cc(C)nn2c1Cc1ccccc1-c1ccc(F)cc1 [Compound I-54] | 0.148 µM | 190 to 192 °C |
| CCOC(=O)COc1cc(C)nn2c(Cc3ccccc3)c(C)c(C(=O)C(N)=O)c12 [Compound I-55] | 0.056 µM | 197 to 199 °C |
| Cc1cc(OCC(=O)OCCN2CCOCC2)c2c(C(=O)C(N)=O)c(C)c(Cc3ccccc3)n2n1 [Compound I-56] | 0.052 µM | 160 to 161 °C |
| CCc1c(C(=O)C(N)=O)c2c(OCC(=O)O)cc(COc3ccccc3)nn2c1Cc1ccccc1 [Compound I-57] | 0.007 µM | 218 to 220 °C (dec.) |
| CCc1c(C(=O)C(N)=O)c2c(OCC(=O)O)cc(CSc3ccccc3)nn2c1Cc1ccccc1 [Compound I-58] | 0.009 µM | 226 to 228 °C (dec.) |
| CCc1c(C(=O)C(N)=O)c2c(OCC(=O)O)cc(CN3CCCC3)nn2c1Cc1ccccc1 [Compound I-59] | 1.08 µM | 228 to 231 °C (dec.) |
| CCc1c(C(=O)C(N)=O)c2c(OCC(=O)O)cc(CN3CCOCC3)nn2c1Cc1ccccc1 [Compound I-60] | 0.365 µM | 167 to 168 °C |
| CCc1c(C(=O)C(N)=O)c2c(OCC(=O)O)cc(CN3CCN(C)CC3)nn2c1Cc1ccccc1 [Compound I-61] | 2.61 µM | 249 to 250 °C (dec.) |
| CCc1c(C(=O)C(N)=O)c2c(OCC(=O)O)cc(-c3ccc(F)cc3)nn2c1Cc1ccccc1 [Compound I-62] | 0.012 µM | 245 to 248 °C (dec.) |
| CCc1c(C(=O)C(N)=O)c2c(OCC(=O)O)cc(-c3ccc(F)cc3)nn2c1Cc1ccccc1 [Compound I-63] | 0.006 µM | 250 to 253 °C (dec.) |
| CCc1c(C(=O)C(N)=O)c2c(OCC(=O)O)cc(-c3ccc(OC)cc3)nn2c1Cc1ccccc1 [Compound I-64] | 0.007 µM | 248 to 250 °C (dec.) |

| Structure (SMILES) | IC50 [1] | melting point |
| --- | --- | --- |
| CCc1c(C(=O)C(N)=O)c2c(OCC(=O)O)cc(C)nn2c1Cc1ccccc1-c1ccccc1 [Compound I-65] | 0.007 µM | 218 to 219 °C (dec.) |
| CCc1c(C(=O)C(N)=O)c2c(OCC(=O)O)cc(C)nn2c1Cc1cccc(Oc2ccccc2)c1 [Compound I-66] | 0.006 µM | 188 to 190 °C |
| CCc1c(C(=O)C(N)=O)c2c(OCC(=O)O)cc(C3CCCCC3)nn2c1Cc1ccccc1 [Compound I-67] | 0.016 µM | 272 to 275 °C (dec.) |
| CCc1c(C(=O)C(N)=O)c2c(OCC(=O)O)cc(C3CCCC3)nn2c1Cc1ccccc1 [Compound I-68] | 0.025 µM | 250 to 252 °C (dec.) |
| CCc1c(C(=O)C(N)=O)c2c(OCC(=O)O)cc(-c3ccc4c(c3)OCO4)nn2c1Cc1ccccc1 [Compound I-69] | 0.008 µM | 240 to 243 °C (dec.) |
| CCc1cc(OCC(=O)O)c2c(C(=O)C(N)=O)c(C)c(Cc3ccccc3)n2n1 [Compound I-70] | 0.009 µM | 200 to 201 °C |
| CCCc1cc(OCC(=O)O)c2c(C(=O)C(N)=O)c(C)c(Cc3ccccc3)n2n1 [Compound I-71] | 0.008 µM | 204 to 205 °C |
| Cc1c(C(=O)C(N)=O)c2c(OCC(=O)O)cc(Cc3ccccc3)nn2c1Cc1ccccc1 [Compound I-72] | 0.009 µM | 245 to 247 °C (dec.) |
| CSCc1cc(OCC(=O)O)c2c(C(=O)C(N)=O)c(C)c(Cc3ccccc3)n2n1 [Compound I-73] | 0.019 µM | 228 to 229 °C (dec.) |
| COCc1cc(OCC(=O)O)c2c(C(=O)C(N)=O)c(C)c(Cc3ccccc3)n2n1 [Compound I-74] | 0.015 µM | 197 to 198 °C |
| CCc1c(C(=O)C(N)=O)c2c(OCC(=O)O)cc(COc3ccc(F)cc3)nn2c1Cc1ccccc1 [Compound I-75] | 0.009 µM | 215 to 216 °C |
| CCc1c(C(=O)C(N)=O)c2c(OCC(=O)O)cc(COc3ccc(OC)cc3)nn2c1Cc1ccccc1 [Compound I-76] | 0.006 µM | 218 to 219 °C |
| CCc1c(C(=O)C(N)=O)c2c(OCC(=O)O)cc(COc3ccc(OC)c(OC)c3)nn2c1Cc1ccccc1 [Compound I-77] | 0.01 µM | 204 to 206 °C |
| CCc1c(C(=O)C(N)=O)c2c(OCC(=O)O)cc(CN3C(=O)CCC3=O)nn2c1Cc1ccccc1 [Compound I-79] | 0.464 µM | 210 to 212 °C (dec.) |
| CCc1c(C(=O)C(N)=O)c2c(OCC(=O)O)cc(CN=[N+]=[N-])nn2c1Cc1ccccc1 [Compound I-80] | 0.013 µM | 199 to 200 °C (dec.) |
| Cc1c(C(=O)C(N)=O)c2c(OCC(=O)O)cc(Cc3ccccc3)nn2c1C [Compound I-81] | 8.19 µM | 232 to 233 °C (dec.) |
| Cc1cc(OCC(=O)O)c2c(C(=O)C(N)=O)c(C)c(Cc3ccccc3-c3ccc(F)cc3)n2n1 [Compound I-82] | 0.093 µM | 242 to 244 °C (dec.) |
| Cc1cc(OCC(=O)O)c2c(C(=O)C(N)=O)c(C)c(Cc3ccc(-c4ccccc4)cc3)n2n1 [Compound I-83] | 0.083 µM | 271 to 276 °C (dec.) |
| CCc1c(C(=O)C(N)=O)c2c(OCC(=O)O)cc(C)nn2c1Cc1ccccc1-c1ccc(F)cc1 [Compound I-84] | 0.008 µM | 214 to 216 °C (dec.) |

Source: US6472389B1, “Pyrrolo[1,2-b] pyridazine derivatives having sPLA2 inhibitory effect” (Shionogi & Co., Ltd., priority 1998, dated 2002)
